Results: patent publication US20250027055A1, “METHOD OF CULTURING THREE-DIMENSIONAL CELLULAR TISSUES” (priority 2021, published 2025)

Key:
[1] = tested on: vascular endothelial cells; test: Comparative experiment: liver tissue of hepatocytes only and separate three-dimensional tissue of vascular endothelial cells and hepatic stellate cells in the same well, monocrotaline exposure; CD31 fluorescent immunostaining; format: cell-based; details: hepatocyte tissue and endothelial/stellate tissue separate, not in contact, various concentrations of monocrotaline, FIG. 2B
Excerpt: FIG. 2A is a schematic diagram illustrating a comparative experiment. […] Then, after exposure to various concentrations of monocrotaline, these tissues were fixed and stained for CD31 by fluorescent immunostaining.
FIG. 2B is a fluorescence microscopy image showing the results of immunostaining.

[2] = tested on: vascular endothelial cells; test: Monocrotaline exposure of three-dimensional cellular tissue containing hepatocytes, vascular endothelial cells and hepatic stellate cells; CD31 fluorescent immunostaining; format: cell-based; details: mixed three-cell-type three-dimensional tissue; exposure to various concentrations of monocrotaline; FIG. 1B
Excerpt: FIG. 1A is a schematic diagram illustrating the above experiment. […] Then, after exposure to various concentrations of monocrotaline, the three-dimensional cellular tissue was fixed and stained for CD31 by fluorescent immunostaining. CD31 is a marker for endothelial cells.
The upper row of FIG. 1B is a fluorescence microscopy image showing the results of immunostaining. The lower row of FIG. 1B is a skeletonized image obtained by processing the image in the upper row of FIG. 1B.

## C[C@H]1C(=O)O[C@@H]2CCN3CC=C(COC(=O)[C@](C)(O)[C@]1(C)O)[C@H]23 [monocrotaline]
[1]
  damage to the vascular endothelial cells of the blood vessels (CD31 immunostaining): no damage to the vascular endothelial cells of the blood vessels was observed
[2]
  damage to the vascular endothelial cells of the blood vessels (CD31 immunostaining): damaged in a monocrotaline concentration-dependent manner
